# Measurements reported in PubChem BioAssay AID2060497 (Molecular Pharmacology Branch, DTP, NCI, 2025).
# “And” between values parts separate entries of the source, which are not always exact repeats. Identical values can stand only once.
# Test system: 317291-083-R-J1-PDC complex spheroids, viability
# Assay: Anticancer human tumor 317291-083-R-J1-PDC patient-derived soft tissue sarcoma cell line growth inhibition [GQUAD]
# Conditions: for viability, T/C: stronger effect = lower value
# Text: DNA G-quadruplex Stabilizer Agents in Combinations in Complex Spheroids
# A high-throughput screen of multi-cell type tumor spheroids was designed to identify active combinations of DNA G-quadruplex stabilizer agents and targeted small molecules. Complex spheroids include a stromal component modeled by human endothelial cells (HUVEC) and fibroblasts modeled by human mesenchymal stem cells (MSCs). The concentration ranges selected for each drug and investigational agent were based upon clinically achievable concentrations if the clinical Cmax of the agent was known.
# Compounds. The drugs and investigational agents: pidnarulex (CX-5461; NSC782164), APTO-253 (NSC789042), BRACO-19 (NSC847499), peposertib (NSC802822), ceralasertib (NSC780249), elimusertib (NSC800525), camonsertib (NSC841442), AZD-1390 (NSC803789), olaparib (NSC753686), talazoparib (NSC767125), ART-558 (NSC835418), sotorasib (NSC818433), MRTX-1133 (NSC836407), SN-38 (NSC673596), topotecan (NSC609699), etoposide (NSC141540), doxorubicin (NSC123127), gemcitabine (NSC613327), 5-fluorouracil (NSC19893), paclitaxel (NSC125973), vemurafenib (NSC761431), panobinostat (NSC761190), R-306465 (JNJ-16241199; NSC773264), adavosertib (NSC754352), TP-3654 (NSC805149), carboplatin (NSC241240), KSQ-4279 (NSC840948), and staurosporine (NSC755774) were obtained from the National Cancer Institute (NCI) Developmental Therapeutics Program Chemical Repository (34). The FDA-approved anticancer drug set is available from the NCI Developmental Therapeutics Program. […] The stock solutions were prepared in dimethyl sulfoxide (DMSO, Sigma-Aldrich, St. Louis, MO, cat. D2650) at 800-fold the tested concentration and stored at -70 degrees C prior to their use. All drugs and investigational agents were tested over a range starting from a high concentration at or near the clinical Cmax and decreasing in half-log increments. If the clinical Cmax for an agent had not been determined, the highest concentration tested was 10 microM.
# 2.3 Cell Culture. All cells were maintained in an incubator at 37 degrees C and 5% CO2 with 95% humidity. The PDC lines were cultured according to standard operating procedures established by the NCI PDMR. All PDCs were thawed and cultured in Matrigel-coated flasks prepared with a working solution of 1X Ham's F-12 nutrient mix, without supplementation (Invitrogen, cat. 11765054), 100 U/mL penicillin-streptomycin (Invitrogen, cat. 15140122), and 2.5% Matrigel (Corning Inc., cat. 354248) for the first three passages. The 857933-349-R-J2-PDC line was cultured in 6C/Colon 1B media, which includes advanced DMEM/F-12 (Thermo Fisher Scientific, cat. 12634028), 10 mM HEPES (Thermo Fisher Scientific, cat. 15630080), 1X GlutaMAX supplement (Thermo Fisher Scientific, cat. 35050061), 0.1 mg/mL primocin (InvivoGen, cat. ant-pm-2), 10% defined fetal bovine serum, heat inactivated (HyClone Laboratories Inc., cat. SH30070.03HI), 50% L-WRN conditioned media (ATCC, cat. CRL-3276), 1.25 mM N-Acetyl-L-cysteine (Sigma-Aldrich, cat. A9165), 10 mM nicotinamide (Sigma-Aldrich, cat. N0636), 1X B-27 supplement (Thermo Fisher Scientific, cat. 17504044), 1X N-2 supplement (Thermo Fisher Scientific, cat. 17502048), 10 microM Y-27632 dihydrochloride (Tocris Bioscience, cat. 1254), and 50 ng/mL human EGF recombinant protein (Thermo Fisher Scientific, cat. PHG0311). The 485176-168-R4-J1-PDC line was cultured in Panc media, which includes all 6C/Colon 1B media components plus 100 ng/mL human FGF-10 (Thermo Fisher Scientific, cat. 100-26), 500 nM SB-431542 (Selleckchem, cat. S1067), and gastrin (Tocris, cat. 3006).
# […]
# 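Note: spheroids exposed to compounds for one week before readout.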
# 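Throughout, for viability, T/C: percent viability relative to DMSO vehicle wells taken as 100%.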
smiles,measurement,setting,value
CC(C)(O)C1CCC(Nc2ccc3ncc(-c4cccc(C(F)(F)F)c4)n3n2)CC1 (stereo not drawn) + CN(C)c1ccc(Nc2c3ccc(NC(=O)CCN4CCCC4)cc3nc3cc(NC(=O)CCN4CCCC4)ccc23)cc1,IC50,"curve of first compound, second compound 0.0316 µM",789 nM
same,IC50,"curve of first compound, second compound 0.1 µM",691 nM
same,IC50,"curve of first compound, second compound 0.316 µM",455 nM
same,IC50,"curve of first compound, second compound 1 µM",44.7 nM
same,IC50,"curve of first compound, second compound 3.16 µM",< 31.6 nM
same,IC50,"curve of first compound, second compound 10 µM",< 31.6 nM
same,"viability, T/C","second compound 0.0316 µM, first compound 0.0316 µM",103%
same,"viability, T/C","second compound 0.0316 µM, first compound 0.1 µM",106%
same,"viability, T/C","second compound 0.0316 µM, first compound 0.316 µM",99.8%
same,"viability, T/C","second compound 0.0316 µM, first compound 1 µM",37.1%
same,"viability, T/C","second compound 0.0316 µM, first compound 3.16 µM",0.9%
same,"viability, T/C","second compound 0.0316 µM, first compound 10 µM",0.94%
same,"viability, T/C","second compound 0.1 µM, first compound 0.0316 µM",97.5%
same,"viability, T/C","second compound 0.1 µM, first compound 0.1 µM",92.2%
same,"viability, T/C","second compound 0.1 µM, first compound 0.316 µM",102%
same,"viability, T/C","second compound 0.1 µM, first compound 1 µM",27.6%
same,"viability, T/C","second compound 0.1 µM, first compound 3.16 µM",0.49%
same,"viability, T/C","second compound 0.1 µM, first compound 10 µM",0.46%
same,"viability, T/C","second compound 0.316 µM, first compound 0.0316 µM",65.9%
same,"viability, T/C","second compound 0.316 µM, first compound 0.1 µM",65.7%
same,"viability, T/C","second compound 0.316 µM, first compound 0.316 µM",72%
same,"viability, T/C","second compound 0.316 µM, first compound 1 µM",11.3%
same,"viability, T/C","second compound 0.316 µM, first compound 3.16 µM",0.66%
same,"viability, T/C","second compound 0.316 µM, first compound 10 µM",0.64%
same,"viability, T/C","second compound 1 µM, first compound 0.0316 µM",59.3%
same,"viability, T/C","second compound 1 µM, first compound 0.1 µM",25.4%
same,"viability, T/C","second compound 1 µM, first compound 0.316 µM",28.7%
same,"viability, T/C","second compound 1 µM, first compound 1 µM",3.69%
same,"viability, T/C","second compound 1 µM, first compound 3.16 µM",0.2%
same,"viability, T/C","second compound 1 µM, first compound 10 µM",0.13%
same,"viability, T/C","second compound 3.16 µM, first compound 0.0316 µM",5.54%
same,"viability, T/C","second compound 3.16 µM, first compound 0.1 µM",1.6%
same,"viability, T/C","second compound 3.16 µM, first compound 0.316 µM",6.22%
same,"viability, T/C","second compound 3.16 µM, first compound 1 µM",0.39%
same,"viability, T/C","second compound 3.16 µM, first compound 3.16 µM",0.12%
same,"viability, T/C","second compound 3.16 µM, first compound 10 µM",0.29%
same,"viability, T/C","second compound 10 µM, first compound 0.0316 µM",0.6%
same,"viability, T/C","second compound 10 µM, first compound 0.1 µM",0.45%
same,"viability, T/C","second compound 10 µM, first compound 0.316 µM",0.27%
same,"viability, T/C","second compound 10 µM, first compound 1 µM",0.46%
same,"viability, T/C","second compound 10 µM, first compound 3.16 µM",0.22%
same,"viability, T/C","second compound 10 µM, first compound 10 µM",0.31%
C=CCn1c(=O)c2cnc(Nc3ccc(N4CCN(C)CC4)cc3)nc2n1-c1cccc(C(C)(C)O)n1,"viability, T/C",compound 0.0316 µM,76.4% and 96.2% and 111%
same,"viability, T/C",compound 0.1 µM,59.4% and 51.4% and 83.7%
same,"viability, T/C",compound 0.316 µM,26.6% (2×) and 41.3%
same,"viability, T/C",compound 1 µM,17.6% and 13.5% and 23.8%
same,"viability, T/C",compound 3.16 µM,8.54% and 7.89% and 17.9%
same,"viability, T/C",compound 10 µM,9.53% and 9.94% and 16.1%
same,IC50,curve of compound,138 nM and 108 nM and 253 nM
CC[C@@]1(O)C(=O)OCc2c1cc1n(c2=O)Cc2cc3c(CN(C)C)c(O)ccc3nc2-1,"viability, T/C",compound 0.000999 µM,116% and 105% and 101%
same,"viability, T/C",compound 0.00316 µM,84% and 86.8% and 104%
same,"viability, T/C",compound 0.00999 µM,94.2% and 83.8% and 102%
same,"viability, T/C",compound 0.0316 µM,70.6% and 71.7% and 80.6%
same,"viability, T/C",compound 0.0999 µM,22.3% and 25% and 25.1%
same,"viability, T/C",compound 0.316 µM,14% and 20.4% and 10.5%
same,IC50,curve of compound,51.5 nM and 53.9 nM and 59.7 nM
Nc1ccn(C2OC(CO)C(O)C2(F)F)c(=O)n1 (stereo not drawn),"viability, T/C",compound 0.0316 µM,55.7% and 53.6% and 61.2%
same,"viability, T/C",compound 0.1 µM,16.2% and 24.2% and 38%
same,"viability, T/C",compound 0.316 µM,16.1% and 12.7% and 9.59%
same,"viability, T/C",compound 1 µM,13.7% and 10.9% and 8.17%
same,"viability, T/C",compound 3.16 µM,10.1% and 14.3% and 9.39%
same,"viability, T/C",compound 10 µM,9.89% and 13.5% and 8.25%
same,IC50,curve of compound,37.3 nM and 36.3 nM and 55.1 nM
